Reference: PMC8673761, “CLN7 is an organellar chloride channel regulating lysosomal function” (Science Advances, 2021)
Numbering of substitutions follows the chain as printed.

Assays:
hCLN7 (EGFP-CLN7, MFSD8) [1] = molecular target: T1, hCLN7 (EGFP-CLN7, MFSD8) (Homo sapiens, UniProt Q8NHS3); assay: whole-endolysosomal patch clamp, Cl- current; assay type: cell-based
T1 construct: full length, 518 residues, N-terminal EGFP tag kept (pEGFP-C2); expressed in HEK293T (endolysosomes); PM-targeted mutant in HeLa
T1 sequence (Q8NHS3 1-518): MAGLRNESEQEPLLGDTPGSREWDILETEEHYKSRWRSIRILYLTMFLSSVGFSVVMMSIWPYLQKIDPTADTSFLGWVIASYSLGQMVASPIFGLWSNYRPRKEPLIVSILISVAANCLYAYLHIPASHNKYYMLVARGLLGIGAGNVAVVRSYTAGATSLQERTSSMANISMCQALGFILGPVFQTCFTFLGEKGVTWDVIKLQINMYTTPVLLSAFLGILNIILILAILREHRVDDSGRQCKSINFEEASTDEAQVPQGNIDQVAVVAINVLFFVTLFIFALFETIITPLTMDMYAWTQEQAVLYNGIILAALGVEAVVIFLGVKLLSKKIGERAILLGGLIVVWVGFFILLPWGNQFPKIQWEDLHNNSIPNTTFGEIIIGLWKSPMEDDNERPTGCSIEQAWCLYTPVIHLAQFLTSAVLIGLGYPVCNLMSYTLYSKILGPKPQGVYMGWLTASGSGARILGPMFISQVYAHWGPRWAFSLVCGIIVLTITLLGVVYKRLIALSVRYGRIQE

[2] = molecular target: T2, YCR023C (yeast CLN7 homolog) (Saccharomyces cerevisiae, UniProt P25351); assay: whole-cell patch clamp in HeLa, Cl- current; assay type: cell-based, Homo sapiens; details: EGFP-tagged; bath 150 mM HCl pH 4.6 (NMDG), pipette pH 7.2
T2 construct: full length, codon-optimised synthetic gene, N-terminal EGFP tag kept (pEGFP-C1); expressed in HeLa cells
T2 sequence (P25351 1-611): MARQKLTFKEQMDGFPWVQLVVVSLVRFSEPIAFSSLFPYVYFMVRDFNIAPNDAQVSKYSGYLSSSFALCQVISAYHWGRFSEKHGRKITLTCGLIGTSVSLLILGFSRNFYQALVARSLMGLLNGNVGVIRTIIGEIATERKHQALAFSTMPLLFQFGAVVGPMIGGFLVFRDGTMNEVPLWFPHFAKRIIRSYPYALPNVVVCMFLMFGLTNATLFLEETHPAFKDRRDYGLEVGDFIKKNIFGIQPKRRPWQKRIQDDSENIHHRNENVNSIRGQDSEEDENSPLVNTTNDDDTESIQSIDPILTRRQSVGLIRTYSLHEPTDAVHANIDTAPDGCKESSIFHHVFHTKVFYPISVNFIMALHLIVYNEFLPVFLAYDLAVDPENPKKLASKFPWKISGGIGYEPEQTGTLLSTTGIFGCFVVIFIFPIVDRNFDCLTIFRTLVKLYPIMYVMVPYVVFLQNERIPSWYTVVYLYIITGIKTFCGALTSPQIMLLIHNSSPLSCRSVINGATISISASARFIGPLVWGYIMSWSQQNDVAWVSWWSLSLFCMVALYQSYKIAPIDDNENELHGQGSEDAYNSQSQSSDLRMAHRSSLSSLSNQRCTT

hCLN7 (EGFP-CLN7, MFSD8) [3] = molecular target: T3, hCLN7 (EGFP-CLN7, MFSD8) (Homo sapiens, UniProt Q8NHS3, L13A/L14A); assay: whole-cell patch clamp in HeLa, Cl- current; assay type: cell-based; details: EGFP-tagged, plasma membrane-targeted; bath 150 mM HCl pH 4.6 (NMDG), pipette pH 7.2
T3 construct: full length, 518 residues, N-terminal EGFP tag kept (pEGFP-C2); expressed in HEK293T (endolysosomes); PM-targeted mutant in HeLa
T3 sequence (Q8NHS3 1-518 L13A/L14A): T1 sequence (Q8NHS3 1-518) with L13A, L14A

IC50 (hCLN7 (EGFP-CLN7, MFSD8) [1]) [µM] | SMILES | whole-cell patch clamp in HeLa, Cl- current [2] | whole-cell patch clamp in HeLa, Cl- current (hCLN7 (EGFP-CLN7, MFSD8) [3])
42.4 ± 7.13 | O=C(O)c1cccnc1Nc1cccc(C(F)(F)F)c1 [NFA] | including outward rectification and sensitivities to DIDS, NFA, and NPPB | the whole-cell currents were also outward-rectifying and sensitive to pH, DIDS, NFA, and NPPB
0.0069 ± 0.00157 | O=C(O)c1cc([N+](=O)[O-])ccc1NCCCc1ccccc1 [NPPB, 5-Nitro-2-(3-phenylpropylamino)benzoic acid] | including outward rectification and sensitivities to DIDS, NFA, and NPPB | the whole-cell currents were also outward-rectifying and sensitive to pH, DIDS, NFA, and NPPB

SMILES | IC50 (hCLN7 (EGFP-CLN7, MFSD8) [1]) [µM] | whole-cell patch clamp in HeLa, Cl- current [2] | whole-cell patch clamp in HeLa, Cl- current (hCLN7 (EGFP-CLN7, MFSD8) [3])
O=S(=O)(O)c1cc(N=C=S)ccc1/C=C/c1ccc(N=C=S)cc1S(=O)(=O)O [DIDS, 4,4‘-diisothiocyano-2,2‘-stilbenedisulfonate] | 32.3 ± 6.08 | including outward rectification and sensitivities to DIDS, NFA, and NPPB | 
